Results reported in patent US12384923B2, “Method of treatment of a surface” (Conopco, Inc., priority 2018, dated 2025).

Test system: Raphidocelis subcapitata
Experiment: Algal growth inhibition by lactam (absorbance at 680 nm of algal cultures in 6-well plates)
Assay type: cell-based
Experimental: The freshwater algae Raphidocelis subcapitata was purchased from Culture Collection of Algae and Protozoa (CCAP 278/4). The algae was cultivated in commercial Gibco BG-11 Media. A bespoke built UV exposure cabinet was used for cultivation. The UV bulbs were replaced by light bulbs (Osram L 8W I535 white). The experiments were performed in sterile 6-well microtiter plates made from polystyrene under static conditions and room temperature. The light-dark cycle was 9 h dark and 15 h light. The quantification was done spectrophotometrically in the 6-well plate by using absorbance measurements. A wavelength scan was done to measure the absorbance maximum of the algaea. […] Since the algaea tend to sediment the plate was obitally shaken to bring the cells in suspension before measuring. Measuring was performed using a Varioscan plate reader for microtiter plates.
In this experiment, the algal cultures were treated with lactam at levels of 10 μM to 200 μM as well as two control plates, one untreated, and one treated with solvent (DMSO) only. The specific levels of lactam measured were 10 μM, 20 μM, 30 μM, 40 μM, 50 μM, 100 μM, 150 μM, 200 μM would equate to levels of from 2 ppm (10 μM) to 40 ppm (200 μM), and to wt. % of 0.0002 wt. % (10 μM) to 0.004 wt. % (200 μM). The lactam was provided in a DMSO solvent to the plates. The rate of growth of the algal culture was measured after 12 days by absorbance value.
In this experiment, the algal cultures were treated with lactam at levels of 0.01 μM to 10 μM as well as two control plates, one untreated, and one treated with solvent (DMSO) only. The specific levels of lactam measured were 0.01 μM, 0.1 μM, 1 μM, 10 μM, this would equate to levels of from 0.002 ppm also defined as 2 ppb (0.01 μM) to 2 ppm (10 μM), and to wt. % of 0.0000002 wt. % (0.01 μM) to 0.0002 wt. % (10 μM). The lactam was provided in a DMSO solvent to the plates. The rate of growth of the algal culture was measured after 6 days by absorbance value.

C=C1NC(=O)C=C1c1ccc(Cl)cc1 [4-(4-chlorophenyl)-5-methylene-pyrrol-2-one]
Absorbance (680 nm) (Example 2, lactam 10 μM, after 12 days): 0.1 | Absorbance (680 nm) (Example 2, lactam 20 μM, after 12 days): 0.1 | Absorbance (680 nm) (Example 2, lactam 30 μM, after 12 days): 0.1 | Absorbance (680 nm) (Example 2, lactam 40 μM, after 12 days): 0.1 | Absorbance (680 nm) (Example 2, lactam 50 μM, after 12 days): 0.1 | Absorbance (680 nm) (Example 2, lactam 100 μM, after 12 days): 0.1 | Absorbance (680 nm) (Example 2, lactam 150 μM, after 12 days): 0.1 | Absorbance (680 nm) (Example 2, lactam 200 μM, after 12 days): 0.1 | algal growth inhibition (in words) (Example 2, lactam level of 10 μM (0.0002 wt. %) and above, 12 days): very effective algal growth inhibition | Absorbance (680 nm) (Example 3, lactam 0.01 μM, after 6 days): 0.8 | Absorbance (680 nm) (Example 3, lactam 0.1 μM, after 6 days): 0.9 | algal growth inhibition (in words) (Example 3, lactam 1 μM, 6 days): no algal growth inhibition was seen | Absorbance (680 nm) (Example 3, lactam 1 μM, after 6 days): 0.9 | Absorbance (680 nm) (Example 3, lactam 10 μM, after 6 days): 0.1 | algal growth inhibition (in words) (Example 3, lactam amount even lower than 1 μM (0.1 μM, 0.01 μM), 6 days): no algal growth inhibition was seen | algal growth inhibition (in words) (Example 3, lactam level of 10 μM (0.0002 wt. %) and above, 6 days): very effective algal growth inhibition
